In ChEMBL document CHEMBL1649167, “Serial plasma voriconazole concentrations after allogeneic hematopoietic stem cell transplantation” (Antimicrob Agents Chemother, 2009):

Assay: Plasma concentration in po dosed patient after 6 days by HPLC analysis
Type: ADME, organism-based
Conditions: human

C[C@@H](c1ncncc1F)[C@](O)(Cn1cncn1)c1ccc(F)cc1F [VORICONAZOLE]
concentration at 144 h: < 120 ng/mL
